The source of these data is US11053233B2, “Solid form of (S)-[2-chloro-4-fluoro-5-(7-morpholin-4-yl-quinazolin-4-yl)phenyl]-(6-methoxy-pyridazin-3-yl)-methanol” (Merck Patent GmbH, priority 2017, dated 2021).

One series relates to A549. Particulars: 150 mg/kg oral plus IR 5 x 2 Gy. How it is done: (§1) The therapeutic relevance of DNA-PK inhibition by the drug substance as such was investigated in vivo in combination with ionizing radiation (IR), a clinically established DSB-inducing treatment. The drug substance was tested for activity in six xenograft mouse models of human cancer. The models were chosen from different cancer indications (colon, lung, head and neck, pancreatic), and histological subtypes (adeno, squamous, large cell). Ionizing radiation was administered using a fractionated schedule of 2 Gy per day administered over five consecutive days (total radiation dose=10 Gy). […] 10 min prior to each fraction of radiation (ONC397-1-2AZ, ONC397-1-3AZ, ONC397-1-4AZ, ONC397-1-5AZ, ONC397-1-8AZ).
(§2) The radiotherapy enhancing effect was quantified across the tested models by the time to reaching 400% initial volume for the 150 mg/kg study arms. The resulting Kaplan-Meier plots were compared by the log-rank test.

The subject of another series is NCI-H460. Particulars: 150 mg/kg oral plus IR 5 x 2 Gy. How it is done:
as §1, §2

Another series relates to HCT116. To be noted: 150 mg/kg oral plus IR 5 x 2 Gy. How it is done: as §1, §2
Series [1] deals with DNA-dependent protein kinase (DNA-PK) (Homo sapiens, UniProt P78527). Nature of the series: Inhibition of DNA-PK activity. Format: biochemical.
Series [2] has as its system xenograft mouse models of human cancer (colon, lung, head and neck, pancreatic). The experiment in a line: Combination with ionizing radiation in six xenograft mouse models of human cancer. The format is in vivo. To be noted: oral, 10 min prior to each fraction; IR 2 Gy per day over five days (10 Gy); all models. How it is done: as §1, §2
Series [3] concerns DNA-PK autophosphorylation in cancer cell lines.
A short description of series [4]: Solubility measurements in biorelevant media (shake flask 24 h, HPLC). Format: physicochemical. As for the experimental part:
Solubility measurements were carried out in accordance with the method described further below.
• Test media: • SGF (Simulated gastric fluid without pepsin) pH 1.2: • 2.0 g sodium chloride were placed in a 1 L volumetric flask and dissolved in around 500 mL water. 80 mL of 1 M hydrochloric acid solution were added and the volume made up to 1 L. • The resulting SGF solution contains: 34.2 mM sodium chloride • FaSSIF (Fasted State Simulated Intestinal Fluid) pH 6.5: • 0.224 g SIF powder (obtained from biorelevant.com) were dissolved in FaSSIF buffer in a 100 mL volumetric flask and made up to volume. The FaSSIF medium was allowed to equilibrate for 2 h at ambient room temperature and used within 48 h of preparation. FaSSIF buffer can be made up by dissolving 0.42 g NaOH pellets, 3.44 g of monobasic sodium phosphate anhydrous and 6.19 g sodium chloride in about 0.9 L of purified water, adjusting the pH to […] with 1 N NaOH or 1 N HCl and making up the volume to 1 L. • The resulting FaSSIF contains: 3 mM sodium taurocholate; 0.75 mM lecithin; 105.9 mM sodium chloride; 28.4 mM monobasic sodium phosphate and 8.7 mM sodium hydroxide. • FeSSIF (Fed State Simulated Intestinal Fluid) pH 5.0: • 1.12 g SIF powder (biorelevant.com) were dissolved in FeSSIF buffer in a 100 mL volumetric flask and made up to volume. It was used within 48 h of preparation. FeSSIF buffer can be made up by dissolving 4.04 g NaOH pellets, 8.65 g of glacial acetic acid and 11.87 g sodium chloride in about 0.9 L of purified water, adjusting the pH to […] with 1 N NaOH or 1 N HCl and making up the volume to 1 L. • The resulting FeSSIF contains: 15 mM sodium taurocholate; 3.75 mM lecithin; 203.2 mM sodium chloride; 101.0 mM sodium hydroxide and 144.1 mM acetic acid. • Solubility Measurements: • Excess amount of substance was weighed into Uniprep® Whatman vials, to which 1 mL of test medium were added. The suspension was shaken for 24 h at 450 rpm (rounds per minute) at 37° C. The pH was measured at 1 h, 6 h and 24 h and the vials were checked for undissolved compound. The pH of the medium was adjusted wherever necessary. After 24 h, the solutions were filtered through 0.2 μm PTFE membrane filter and the filtrates analysed using HPLC after suitable dilutions. • HPLC: • Apparatus: Agilent 1100 • Column: Chromolith® Performance RP-18e100-3 mm, Art. 1.52001 (h) • Wavelength: 282 nm • Injection volume: 5 μL • Column Oven: 37° C. • Auto sampler: 37° C. • Eluent A for HPLC: Formic Acid:Ultrapure water (1:999;v/v) • Eluent B for HPLC: Formic Acid+Acetonitrile (1:999;v/v) • HPLC-Gradient: […]

Series [5] can be described thus: Long-term DS (drug substance) stability investigations. Format: physicochemical. To be noted: up to 40° C./75% relative humidity.

The structures appear in SMILES notation. Values after ≈ are worked out from the molar mass of the structure shown.

Take `COc1ccc([C@@H](O)c2cc(-c3ncnc4cc(N5CCOCC5)ccc34)c(F)cc2Cl)nn1` [drug substance, (S)-[2-chloro-4-fluoro-5-(7-morpholin-4-yl-quinazolin-4-yl)phenyl]-(6-methoxy-pyridazin-3-yl)-methanol]: the “Enhancement ratio (time to reaching 400% initial volume)” value in the series with A549 was 1.5; in the series with NCI-H460, 2.6; in the series on HCT116 it was 1.5. For the same compound, the “Inhibition of DNA-PK activity” value in series [1] was “potent and selective inhibitor”. In series [2], the “Enhancement of the radiation effect” value is given as “strong enhancement of the radiation effect”. Besides, the “Inhibition of DNA-PK autophosphorylation” value in series [3] was “potent inhibition”.

As to `COc1ccc([C@@H](O)c2cc(-c3ncnc4cc(N5CCOCC5)ccc34)c(F)cc2Cl)nn1` [anhydrous disordered crystalline form, (S)-[2-chloro-4-fluoro-5-(7-morpholin-4-yl-quinazolin-4-yl)phenyl]-(6-methoxy-pyridazin-3-yl)-methanol], the “Solubility compared with the anhydrous ordered crystalline compound” value in series [4] (at pH 1.2) was “more than double the solubility of the crystalline form”; in series [4] (general statement) it was “significantly better”. The solubility at 24 h in series [4] (fasted state simulated intestinal fluid (FaSSIF), pH 6.5, thermodynamic from solid, FaSSIF, pH of medium 6.5, 37 °C) is 10 ± 1 µg/mL (≈ 20.8 µM); in series [4] (fed state simulated intestinal fluid (FeSSIF), pH 5, thermodynamic from solid, FeSSIF, pH of medium 5.0, 37 °C), 56 ± 2 µg/mL (≈ 116 µM); in series [4] (simulated gastric fluid without pepsin (SGF), pH 1.2, simulated gastric fluid, thermodynamic from solid, SGF, pH of medium 1.2, 37 °C) it was 2020 ± 67 µg/mL (≈ 4200 µM). Moreover, the “Chemical and physical stability” value in series [5] was “high chemical and physical stability”.
